Experimental data as given in US11559512B2, “Composition for prevention, alleviation, and/or treatment of heat illness” (priority 2017, dated 2023).
“Also recorded” adds a separate entry of the source. Like-named read-outs stand apart in the source and are kept apart here.

Assays:
[1] = tested on: human vascular endothelial cells (HUVECs)
Experimental: Then, 2 mL of trypsin/EDTA was added to the cells, and the cells were detached by incubation at 37° C. in a 5% CO2 environment. After the cell detachment, 5 mL/dish of a culture medium was added, and the cells were transferred to a 15-mL tube and centrifuged at 1200 rpm for 5 minutes in a centrifuge. The supernatant was removed, and then, the number of cells was adjusted to a cell density of 5×10^4 cells/mL using a cell counting kit by the addition of 5 mL of a culture medium. Then, two 6-well plates were used, and the solution with the adjusted HUVEC density was inoculated at 4 mL/well to 3 wells of each plate. Each phytochemical component was added at 4 μL (final concentration: 10 μM)/well to one well of each plate. Also, a phytochemical dissolving solution DMSO was added at 4 μL/well to the remaining wells to prepare a control. […]
Serial dilutions of auraptene were added to the cells, and the cell death of the HUVECs caused by heat stress was observed by crystal violet staining.

[2] = tested on: ABCD3; assay: ABCD3 expression in HUVECs, antibody staining, confocal microscopy; format: cell-based, human; settings: usual culture and heat stress load (40° C. for 3 days), vs DMSO
Experimental: (§1) Then, six 35-mm dishes were provided, and 2 mL/dish of the solution with the adjusted HUVEC density was inoculated. Auraptene (10 mM) and tangeretin (10 mM) were each added at 2 μL (final concentration: 10 μM)/dish to two dishes. Also, DMSO was added at 2 μL/dish to the remaining 2 dishes to prepare a control.
(§2) The supernatant of the HUVECs cultured in each 35-mm dish was removed, and 2 mL/dish of 4% paraformaldehyde in a phosphate buffer solution was added. The cells were left standing at room temperature for 1 hour.
(§3) The solution was removed, and then, the cells were rinsed twice. 2 mL/dish of 0.5% Triton-X00 (Wako Pure Chemical Industries, Ltd.) in PBS was added, and the cells were left standing at room temperature for 5 minutes. The solution was removed, and then, the cells were rinsed twice. 1 mL/dish of an anti-ABCD3 antibody, an anti-PPARα antibody or an anti-PPARγ antibody, each of which was diluted 150-fold with a FACS buffer, was added, and the cells were left standing at room temperature for 2 hours for reaction.
The solution was removed, and then, the cells were rinsed twice. […] Two drops of Diamond Antifade Mountant with DAPI were added to the cells, and a round glass cover was put on the cells, followed by fluorescence photographing under a confocal laser scanning microscope.

[3] = tested on: PPARα; assay: PPARα expression in HUVECs, antibody staining, confocal microscopy; format: cell-based, human
Experimental: as §1, §2, §3
(§4) The solution was removed, and then, the cells were rinsed twice. 1 mL/dish of DyLight 649-labeled anti-Rabbit IgG antibody diluted 500-fold with a FACS buffer was added, and the cells were left standing at room temperature for 1 hour in the dark for reaction. The solution was removed, and then, the cells were rinsed twice. Two drops of Diamond Antifade Mountant with DAPI were added to the cells, and a round glass cover was put on the cells, followed by fluorescence photographing under a confocal laser scanning microscope.

[4] = tested on: PPARγ; assay: PPARγ expression in HUVECs, antibody staining, confocal microscopy; format: cell-based, human
Experimental: as §1, §2, §3, §4

[5] = tested on: human vascular endothelial cells (HUVECs); assay: DiOC6 / PI staining and flow cytometry of HUVECs under heat stress load; format: cell-based; settings: heat stress load 40° C. for 2 days, flow cytometry, vs DMSO
Experimental: Two days later, the culture solution of each well was removed with an aspirator. […] The supernatant was removed, and then, 5 mL of a culture medium at 37° C. was added to the cells and stirred. After the stirring, DiOC6 (final concentration: 80 nM) was added to each 15-mL tube and reacted at the same temperature as the culture temperature for 30 minutes.
The supernatant was removed, and then, 1 mL of a culture medium was added to the cells, and 2 μL of PI (Sigma-Aldrich Co. LLC) was added. The cells thus supplemented were transferred to a FACS tube and measured in a flow cytometer (BD).
In order to quantify the effects, the cytotoxicity suppressive effects of auraptene (component A) and tangeretin (component T) inhibiting the cell death caused by the load of heat stress were quantified using DiOC6 staining and flow cytometry as described above. The DiOC6 dye is a reagent for measuring mitochondrial activity and is a reagent that can perform measurement based on the attenuation of the amount of fluorescence by cytotoxicity (cell death, etc.).

[6] = tested on: fat droplets in human vascular endothelial cells (HUVECs); assay: Intracellular fat droplets, BODIPY staining, confocal microscopy; format: cell-based
Experimental: as §1, with “Then, nine” for “Then, six”, “to three” for “to two”, “remaining 3” for “remaining 2”
The supernatant of the HUVECs cultured in each 35-mm dish was removed, and 2 mL/dish of 4% paraformaldehyde in a phosphate buffer solution was added. The cells were left standing at room temperature for 1 hour for cell fixation. The solution was removed, and then, the cells were rinsed twice. 1 mL/dish of BODIPY diluted 2000-fold with a FACS buffer was added, and the cells were left standing at room temperature for 30 minutes in the dark for reaction.
The solution was removed, and then, the cells were rinsed twice. Two drops of Diamond Antifade Mountant with DAPI were added to the cells, and a round glass cover was put on the cells, followed by fluorescence photographing under a confocal laser scanning microscope.

[7] = HUVECs, 40° C. for 2 days, final concentration 10 μM
[8] = HUVECs, 40° C. and 1 day, 10 μM, vs DMSO
[9] = Table 2 summary, HUVECs 40° C., 37° C. as comparative control

Q: C[N+](C)(C)C[C@H](O)CC(=O)[O-] [L-carnitine, reference compound] was tested. Which “concentration at which the cell death suppressive effect was confirmed (value in brackets)” value ([1]; HUVECs, 40° C. for 3 days, crystal violet staining) did it give?
A: 15 mM

Q: And the “concentration at which the cell death suppressive effect was observed” value ([1]; HUVECs, 40° C. for 3 days, 0, 1.2 or 2.5 mg/ml)?
A: 2.5 mg/mL

Q: What about the “concentration required relative to auraptene” value ([1]; cell death suppressive effect, HUVECs 40° C.) of the same molecule?
A: approximately 25000 times

Q: With CC(C)(Oc1ccc(CCNC(=O)c2ccc(Cl)cc2)cc1)C(=O)O [bezafibrate, reference compound] as the molecule, how does the “suppression of cytotoxicity caused by the load of heat stress (phase contrast microscopic observation)” value (from here on “suppression of cytotoxicity caused”) [1] read?
A: unable to suppress the cytotoxicity

Q: For C[N+](C)(C)[C@@H](Cc1c[nH]c(=S)[nH]1)C(=O)[O-] [ergothioneine, reference compound], which “suppression of cytotoxicity caused” value [1, 7] is on record?
A: unable to suppress the cytotoxicity

Q: For COc1ccc(-c2cc(=O)c3c(OC)c(OC)c(OC)c(OC)c3o2)cc1OC [nobiletin, reference compound], which “suppression of cytotoxicity caused” value [1, 7] is on record?
A: unable to suppress the cytotoxicity

Q: COc1ccc2ccc(=O)oc2c1CC=C(C)C [osthol, reference compound] was tested. Which “suppression of cytotoxicity caused” value [1, 7] did it give?
A: unable to suppress the cytotoxicity

Q: For Oc1ccc(C=Cc2cc(O)cc(O)c2)cc1 [resveratrol, reference compound], which “suppression of cytotoxicity caused” value [1] is on record?
A: unable to suppress the cytotoxicity

Q: How did the “suppression of cytotoxicity caused” value [1] turn out when C[S+]([O-])CCCCN=C=S (centres unmarked) [sulforaphane, reference compound] was run?
A: unable to suppress the cytotoxicity

Q: For COc1ccc(-c2cc(=O)c3c(OC)c(OC)c(OC)c(OC)c3o2)cc1 [tangeretin, 4′,5,6,7,8-pentamethoxyflavone], which “change in the expression of ABCD3” value [2] is on record?
A: change in the expression of ABCD3 was not observed

Q: What about the “expression of PPARα” value [3, 8] of the same molecule?
A: increase in the expression of PPARα

Q: What about the PPARα [3, 9] of the same molecule?
A: Increased

Q: What about the “expression of PPARγ” value [4, 8] of the same molecule?
A: increasing effect was not observed

Q: And the PPARγ [4, 9]?
A: Increased

Q: What about the “number of DiOC6 staining-positive cells (suppression of cytotoxicity, cell death)” value [5] of the same molecule?
A: increased the number of DiOC6 staining-positive cells

Q: And the “amount of fat droplets under heat stress load” value ([6]; HUVECs, 40° C. for 2 days, 10 μM, BODIPY, vs DMSO)?
A: decrease in the amount of fat droplets; also recorded: decreased the amount of fat droplets

Q: What about the “amount of fat droplets at usual culture” value ([6]; HUVECs, usual culture (37° C.), 10 μM, vs DMSO) of the same molecule?
A: no change in the amount of fat droplets

Q: And the “Amount of fat droplets” value [6, 9]?
A: Decreased

Q: And the “Cytotoxicity (cell death)” value [1]?
A: Suppressed

Q: What about the “cell survival by crystal violet staining” value ([1]; HUVECs cultured at 40° C. for 3 days, vs DMSO) of the same molecule?
A: evidently increased cell survival
